The values below come from patent US7556930B2, “CD39L3 and its role in diabetes” (Metabolex Inc., priority 2005, dated 2009).

Read-outs that look alike come from different tables or passages of the source.

The target of assay [1] is T1, full length human CD39L3 (Homo sapiens, UniProt O75355, A496V).
T1 construct: Cells were transiently transfected with the full length human CD39L3 clone; expressed in transfected cells; host or cells: HEK293 cells, transiently transfected; frozen and thawed intact cells
T1 sequence (O75355 1-529 A496V): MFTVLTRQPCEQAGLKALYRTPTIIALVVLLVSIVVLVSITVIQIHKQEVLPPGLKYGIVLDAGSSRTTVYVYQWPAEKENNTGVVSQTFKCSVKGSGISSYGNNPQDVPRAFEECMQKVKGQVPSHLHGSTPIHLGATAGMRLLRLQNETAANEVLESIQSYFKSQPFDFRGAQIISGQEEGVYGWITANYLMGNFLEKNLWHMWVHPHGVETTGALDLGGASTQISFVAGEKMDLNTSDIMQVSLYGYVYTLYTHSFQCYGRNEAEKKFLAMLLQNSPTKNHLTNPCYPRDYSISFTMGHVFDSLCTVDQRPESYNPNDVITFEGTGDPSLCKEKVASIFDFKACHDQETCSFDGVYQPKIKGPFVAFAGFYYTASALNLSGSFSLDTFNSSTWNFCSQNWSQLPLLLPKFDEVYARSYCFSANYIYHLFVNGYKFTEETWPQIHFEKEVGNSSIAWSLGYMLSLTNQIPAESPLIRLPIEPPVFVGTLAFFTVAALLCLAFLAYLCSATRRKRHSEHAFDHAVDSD
The experiment in a line: Piper Phosphate Assay of CD39L3 nucleotide hydrolysis activity in transiently transfected HEK293 cells. It is filed as biochemical. How it is done: (§1) FIG. 4 illustrates the Km of ATP determined for full length human CD39L3 in transiently transfected HEK293 cells. The Km of ATP values determined under two concentrations of each cation source: CaCl2 and MgCl2. […] Activity assays were performed with the Piper Phosphate Assay (Molecular Probes).
(§2) FIG. 5 illustrates the Km of ADP determined for full length human CD39L3 in transiently transfected HEK293 cells. The Km of ADP values determined under two concentrations of each cation source: CaCl2 and MgCl2. […] Activity assays were performed with the Piper Phosphate Assay (Invitrogen).
(§3) FIG. 6 illustrates the inhibition of CD39L3 examined with the general ectoATPase inhibitor, ARL 67156. HEK293 cells were transiently transfected with full length human CD39L3. […] Activity assays were performed with the Piper Phosphate Assay (Molecular Probes).
(§4) As the activity of CD39L3 involves the hydrolysis of nucleoside triphosphates and diphosphates, Molecular Probes' Piper Phosphate Assay Kit™, which is an assay that detects free phosphate, a product of the hydrolysis, was used.
(§5) Cells were transiently transfected with the full length human CD39L3 clone were measured for nucleotide hydrolysis activity in suspension or adhered to the plate, within an isotonic buffer including the required cation cofactor, calcium or magnesium. Batches of transiently transfected CD39L3 cells were produced and frozen until use.
(§6) Using cells that were frozen and thawed, the Piper Phosphate Assay was used to determine the Km of ATP and ADP for the full length human CD39L3 clone (FIGS. 4 and 5). In addition, to validate the detection of an inhibitor with this assay format, a general ectoATPase inhibitor, ARL 67156, was examined.

Assay [2] addresses T2, full length human CD39L3 (Homo sapiens, UniProt O75355).
T2 construct: Cells were transiently transfected with the full length human CD39L3 clone; expressed in transfected cells; host or cells: HEK293 cells, transiently transfected; frozen and thawed intact cells
T2 sequence (O75355 1-529 A496V): T1 sequence (O75355 1-529 A496V)
The description is as above. It is filed as biochemical. Conditions: HEK293 cells transiently transfected with full length human CD39L3, read-out: IC50, inhibition of CD39L3. Here is the method:
as §1, §2, §3, §4, §5, §6

In the case of `Nc1ncnc2c1ncn2[C@@H]1O[C@H](COP(=O)(O)OP(=O)(O)OP(=O)(O)O)[C@@H](O)[C@H]1O` [ATP], the Km (usually the substrate concentration at which the rate is half of its maximum) on full length human CD39L3 [1] (1 mM CaCl2, read-out: Km of ATP) was 105 µM; on full length human CD39L3 [1] (1 mM MgCl2, read-out: Km of ATP), 60 µM; at full length human CD39L3 [1] (5 mM CaCl2, read-out: Km of ATP) it was 85 µM; at full length human CD39L3 [1] (5 mM MgCl2, read-out: Km of ATP), 52 µM.

Consider `CCN(CC)c1ncnc2c1ncn2[C@@H]1O[C@H](COP(=O)(O)OP(=O)(O)C(Br)(Br)P(=O)(O)O)[C@@H](O)[C@H]1O` [ARL 67156], for which the 50% inhibitory concentration (IC50) (commonly the concentration needed to halve the response being measured) on full length human CD39L3 [2] (40 uM ADP+5 mM CaCl2) amounted to 59 µM; on full length human CD39L3 [2] (40 uM ADP+5 mM MgCl2), 57 µM; at full length human CD39L3 [2] (65 μM ATP+5 mM CaCl2) it was 49 µM; on full length human CD39L3 [2] (65 uM ATP+5 mM MgCl2), 59 µM.

For `Nc1ncnc2c1ncn2[C@@H]1O[C@H](COP(=O)(O)OP(=O)(O)O)[C@@H](O)[C@H]1O` [ADP], the Km was determined as 42 µM on full length human CD39L3 [1] (1 mM CaCl2, read-out: Km of ADP); 35 µM on full length human CD39L3 [1] (1 mM MgCl2, read-out: Km of ADP); 39 µM on full length human CD39L3 [1] (5 mM CaCl2, read-out: Km of ADP); 44 µM at full length human CD39L3 [1] (5 mM MgCl2, read-out: Km of ADP).
